Converted amounts (≈) assume the structure as drawn. Where two headings read alike, the source gives them in different places. Non-standard residues stand in square brackets, D forms with d. Residues, ends and D or L forms follow the SMILES beside them. *: point of attachment. Palmitoyl = CCCCCCCCCCCCCCCC(=O)*; Octanoyl = CCCCCCCC(=O)*; Orn = NCCC[C@H](N)C(=O)O; Hexanoyl = CCCCCC(=O)*; Butyryl = CCCC(=O)*
Experiments:
Botrytis cinerea = format: cell-based
Method: (§1) The experiments were conducted in an optimal minimal medium for each pathogen. The media and growth conditions were described in Tables 2 and 3. MIC and MBC values were determined following the procedures described above. […] Fifty microliters of serially diluted peptides (2-fold the final concentration) were added in a 96-well polystyrene plate with 50 μL of the fungal spore suspension. […] The plates were incubated at an optimal temperature without shaking. […] MFC was determined as the lowest peptide concentration at which no fungal growth was observed.

[1] = tested on: Klebsiella pneumonia NTUH-K2044
[2] = tested on: Staphylococcus aureus BCRC 10777
[3] = tested on: Staphylococcus epidermidis ATCC 14990
[4] = tested on: Pseudomonas aeruginosa ATCC 9027
[5] = tested on: Salmonella typhimurium NCHU 15721
[6] = tested on: Cryptococcus neoformans H99
[7] = tested on: Cryptococcus neoformans T1 (fluconazole-resistant)
[8] = tested on: Cryptococcus neoformans 89-610 (fluconazole-resistant)
[9] = tested on: Cryptococcus deuterogattii R265
Eco DH5α = test: MIC and MBC by serial dilution in 96-well plate; format: cell-based, Escherichia coli; settings: Table 13
Method: The effect of peptide length on the antimicrobial activity was investigated by deciding the minimal inhibitory concentration (MIC) and minimal bactericidal concentration (MBC) for each peptide against the pathogen with the media and growth conditions of phytopathogenic bacteria and E. coli as described in Table 1. Single bacterial colony grown on an optimal rich agar medium was picked, and each grew in 3 mL of the same rich liquid medium for 4 to 6 h.
For experiments carried out in the rich medium, the bacterial broth culture was then diluted in the same medium to give a final concentration of OD600=0.08, and then further diluted 100 folds in the same medium.
For experiments carried out in the minimal medium, the bacterial cells were collected from the bacterial liquid culture by centrifugation, re-suspended in an optimal minimal medium to give a final concentration of OD600=0.08, and then further diluted 100 folds in the same minimal medium.
Fifty microliters of serially diluted peptides (2-fold the final concentration) were added in a 96-well polystyrene plate with 50 μL of the bacterial culture. The final concentrations of peptides were 0, 2, 4, 8, 16 and 32 μg/mL. The plates were incubated at an optimal temperature without shaking.
MBC was determined as the lowest peptide concentration at which no colonies formed.

Erwinia chrysanthemi = format: cell-based
Method: (§2) The effect of peptide length on the antimicrobial activity was investigated by deciding the minimal inhibitory concentration (MIC) and minimal bactericidal concentration (MBC) for each peptide against the pathogen with the media and growth conditions of phytopathogenic bacteria and E. coli as described in Table 1. Single bacterial colony grown on an optimal rich agar medium was picked, and each grew in 3 mL of the same rich liquid medium for 4 to 6 h. For experiments carried out in the rich medium, the bacterial broth culture was then diluted in the same medium to give a final concentration of OD600=0.08, and then further diluted 100 folds in the same medium. For experiments carried out in the minimal medium, the bacterial cells were collected from the bacterial liquid culture by centrifugation, re-suspended in an optimal minimal medium to give a final concentration of OD600=0.08, and then further diluted 100 folds in the same minimal medium. Fifty microliters of serially diluted peptides (2-fold the final concentration) were added in a 96-well polystyrene plate with 50 μL of the bacterial culture. […] The plates were incubated at an optimal temperature without shaking. […] MBC was determined as the lowest peptide concentration at which no colonies formed. The experiments were conducted in an optimal minimal medium for each pathogen. The media and growth conditions were described in Tables 2 and 3. MIC and MBC values were determined following the procedures described above. […] Fifty microliters of serially diluted peptides (2-fold the final concentration) were added in a 96-well polystyrene plate with 50 μL of the fungal spore suspension.

[10] = tested on: Pectobacterium carotovorum subsp. carotovorum; format: cell-based
Method: as §2

Cgl FST02 = format: cell-based, Colletotricum gloeosporioides; settings: Cgl FST02; optimal minimal media (Table 11)
Method: as §1

[11] = Salmonella typhimurium NCHU 15721
[12] = Pseudomonas aeruginosa ATCC 9027
[13] = Bc, optimal minimal media (Table 11)

## CCCCCCCCCCCCCCCC(=O)N[C@@H](Cc1c[nH]c2ccccc12)C(=O)N[C@@H](CCCCN)C(=O)N[C@@H](CCCCN)C(=O)N[C@@H](CC(C)C)C(=O)N[C@@H](CCCCN)C(=O)N[C@@H](CCCCN)C(=O)N[C@@H](CC(C)C)C(=O)N[C@@H](CC(C)C)C(=O)N[C@@H](CCCCN)C(=O)N[C@@H](CCCCN)C(=O)N[C@@H](CC(C)C)C(=O)N[C@@H](CCCCN)C(=O)N[C@@H](CCCCN)C(=O)N[C@@H](CC(C)C)C(N)=O [pepD2P] (Palmitoyl-WKKLKKLLKKLKKL-NH2)
Botrytis cinerea
  MFC: 6.4 µg/mL (≈ 3.15 µM)
  MIC: 6.4 µg/mL (≈ 3.15 µM)

## CCCC(=O)N[C@@H](Cc1c[nH]c2ccccc12)C(=O)N[C@@H](CCCCN)C(=O)N[C@@H](CCCCN)C(=O)N[C@@H](CC(C)C)C(=O)N[C@@H](CCCCN)C(=O)N[C@@H](CCCCN)C(=O)N[C@@H](CC(C)C)C(=O)N[C@@H](CC(C)C)C(=O)N[C@@H](CCCCN)C(=O)N[C@@H](CCCCN)C(=O)N[C@@H](CC(C)C)C(N)=O [pepD3B] (Butyryl-WKKLKKLLKKL-NH2)
[1]
  MBC: 16 µg/mL (≈ 10.7 µM)
  MIC: 16 µg/mL (≈ 10.7 µM)
[2]
  MBC: 16 µg/mL (≈ 10.7 µM)
  MIC: 16 µg/mL (≈ 10.7 µM)
[3]
  MBC: 16 µg/mL (≈ 10.7 µM)
  MIC: 16 µg/mL (≈ 10.7 µM)

## CCCCCC(=O)N[C@@H](Cc1c[nH]c2ccccc12)C(=O)N[C@@H](CCCCN)C(=O)N[C@@H](CCCCN)C(=O)N[C@@H](CC(C)C)C(=O)N[C@@H](CCCCN)C(=O)N[C@@H](CCCCN)C(=O)N[C@@H](CC(C)C)C(=O)N[C@@H](CC(C)C)C(=O)N[C@@H](CCCCN)C(=O)N[C@@H](CCCCN)C(=O)N[C@@H](CC(C)C)C(N)=O [pepD3H] (Hexanoyl-WKKLKKLLKKL-NH2)
[1]
  MBC: 16 µg/mL (≈ 10.5 µM)
  MIC: 16 µg/mL (≈ 10.5 µM)
[2]
  MBC: 8 µg/mL (≈ 5.25 µM)
  MIC: 8 µg/mL (≈ 5.25 µM)
[3]
  MBC: 16 µg/mL (≈ 10.5 µM)
  MIC: 16 µg/mL (≈ 10.5 µM)
[4]; ATCC 9027
  MBC: 8 µg/mL (≈ 5.25 µM)
  MIC: 4 µg/mL (≈ 2.63 µM)
[5]; murium NCHU 15721
  MBC: 32 µg/mL (≈ 21 µM)
  MIC: 16 µg/mL (≈ 10.5 µM)

## CCCCCCCC(=O)N[C@@H](Cc1c[nH]c2ccccc12)C(=O)N[C@@H](CCCCN)C(=O)N[C@@H](CCCCN)C(=O)N[C@@H](CC(C)C)C(=O)N[C@@H](CCCCN)C(=O)N[C@@H](CCCCN)C(=O)N[C@@H](CC(C)C)C(=O)N[C@@H](CC(C)C)C(=O)N[C@@H](CCCCN)C(=O)N[C@@H](CCCCN)C(=O)N[C@@H](CC(C)C)C(N)=O [pepD3O] (Octanoyl-WKKLKKLLKKL-NH2)
[1]
  MBC: 16 µg/mL (≈ 10.3 µM)
  MIC: 16 µg/mL (≈ 10.3 µM)
[2]
  MBC: 8 µg/mL (≈ 5.16 µM)
  MIC: 8 µg/mL (≈ 5.16 µM)
[3]
  MBC: 8 µg/mL (≈ 5.16 µM)
  MIC: 8 µg/mL (≈ 5.16 µM)

## CC(=O)N[C@@H](Cc1c[nH]c2ccccc12)C(=O)N[C@@H](CCCN)C(=O)N[C@@H](CCCN)C(=O)N[C@@H](CC(C)C)C(=O)N[C@@H](CCCN)C(=O)N[C@@H](CCCN)C(=O)N[C@@H](CC(C)C)C(=O)N[C@@H](CC(C)C)C(=O)N[C@@H](CCCN)C(=O)N[C@@H](CCCN)C(=O)N[C@@H](CC(C)C)C(=O)N[C@@H](CCCN)C(=O)N[C@@H](CCCN)C(=O)N[C@@H](CC(C)C)C(N)=O [pepO2, Ac-WOOLOOLLOOLOOL-NH2] (Ac-W[Orn][Orn]L[Orn][Orn]LL[Orn][Orn]L[Orn][Orn]L-NH2)
[1]
  MBC: 32 µg/mL (≈ 18.6 µM)
  MIC: 16 µg/mL (≈ 9.28 µM)
[2]
  MBC: 32 µg/mL (≈ 18.6 µM)
  MIC: 32 µg/mL (≈ 18.6 µM)
[3]
  MBC: 32 µg/mL (≈ 18.6 µM)
  MIC: 32 µg/mL (≈ 18.6 µM)

## CC(=O)N[C@@H](Cc1c[nH]c2ccccc12)C(=O)N[C@H](CCCCN)C(=O)N[C@H](CCCCN)C(=O)N[C@H](CC(C)C)C(=O)N[C@H](CCCCN)C(=O)N[C@H](CCCCN)C(=O)N[C@H](CC(C)C)C(=O)N[C@H](CC(C)C)C(=O)N[C@H](CCCCN)C(=O)N[C@H](CCCCN)C(=O)N[C@H](CC(C)C)C(N)=O [pepdD3, Ac-Wkklkkllkkl-NH2] (Ac-W[dK][dK][dL][dK][dK][dL][dL][dK][dK][dL]-NH2)
[6]; Cryptococcus neoformans H99
  MIC: 8 µg/mL (≈ 5.45 µM)
[6]; H99
  MFC: 8 µg/mL (≈ 5.45 µM)
[7]; Cryptococcus neoformans T1 (fluconazole-resistant)
  MIC: 4 µg/mL (≈ 2.73 µM)
[7]; T1 (fluconazole-resistant)
  MFC: 4 µg/mL (≈ 2.73 µM)
[8]; 89-610 (fluconazole-resistant)
  MFC: 4 µg/mL (≈ 2.73 µM)
[8]; Cryptococcus neoformans 89-610 (fluconazole-resistant)
  MIC: 4 µg/mL (≈ 2.73 µM)
[9]
  MFC: 4 µg/mL (≈ 2.73 µM)
[9]; Cryptococcus deuterogattii R265
  MIC: 4 µg/mL (≈ 2.73 µM)

## Ac-WKKIKKIIKKIKKI-NH2 [pepI2]
Eco DH5α
  MBC: 5.3 µg/mL
  MIC: 5.3 µg/mL
Erwinia chrysanthemi
  MBC: 16.0 µg/mL
  MIC: 16.0 µg/mL
[10]
  MBC: 1.8 µg/mL
  MIC: 1.5 µg/mL
[1]
  MBC: 32 µg/mL
  MIC: 16 µg/mL
[2]
  MBC: 32 µg/mL
  MIC: 32 µg/mL
[3]
  MBC: 32 µg/mL
  MIC: 16 µg/mL
[4]; ATCC 9027
  MBC: 4 µg/mL
  MIC: 4 µg/mL
[5]; [11]
  MBC: 16 µg/mL
  MIC: 8 µg/mL

## Ac-WKKLHKLLKKL-NH2 [pepD3-5H]
[4]; ATCC 9027
  MBC: 8 µg/mL
  MIC: 4 µg/mL

## Ac-WKKLKKALKKL-NH2 [pepD3-7A]
[4]; ATCC 9027
  MBC: 8 µg/mL
  MIC: 4 µg/mL

## Ac-WKKLKKFLKKL-NH2 [pepD3-7F]
[4]; ATCC 9027
  MBC: 8 µg/mL
  MIC: 4 µg/mL

## Ac-WKKLKKILKKL-NH2 [pepD3-7I]
[4]; ATCC 9027
  MBC: 4 µg/mL
  MIC: 4 µg/mL

## Ac-WKKLKKMLKKL-NH2 [pepD3-7M]
[4]; ATCC 9027
  MBC: 8 µg/mL
  MIC: 4 µg/mL

## Ac-WKKLRKLLKKL-NH2 [pepD3-5R]
[4]; [12]
  MBC: 8 µg/mL
  MIC: 4 µg/mL

## Ac-WKKVKKVVKKVKKV-NH2 [pepV2]
Eco DH5α
  MBC: 32.0 µg/mL
  MIC: 32.0 µg/mL

## Ac-WRRLRRLLRRLRRL-NH2 [pepR2]
[1]
  MBC: 32 µg/mL
  MIC: 32 µg/mL
[2]
  MBC: 16 µg/mL
  MIC: 16 µg/mL
[3]
  MBC: 16 µg/mL
  MIC: 16 µg/mL

## Stearyl-WKKLKKLLKKLKKL-NH2 (stearyl-WKKLKKLLKKLKKL-NH2) [pepD2S, 11]
Botrytis cinerea; [13]
  MFC: — (“—” indicates no antimicrobial activity being detected at the highest peptide concentration (32 μg/mL) tested in this study.)
  MIC: — (“—” indicates no antimicrobial activity being detected at the highest peptide concentration (32 μg/mL) tested in this study.)
Cgl FST02
  MFC: — (“—” indicates no antimicrobial activity being detected at the highest peptide concentration (32 μg/mL) tested in this study.)
  MIC: — (“—” indicates no antimicrobial activity being detected at the highest peptide concentration (32 μg/mL) tested in this study.)
